Experiment: Gamma scintigraphy studies of stavudine absorption
Assay type: in vivo
Procedure: It has been found in gamma scintigraphy studies that stavudine is well absorbed in the upper intestine. The absorption in the colon is approximately one half that of the small intestine. The optimal formulation would be designed to release approximately 40% of the stavudine in four hours and the remainder over the next twelve to twenty hours. A 100 mg. extended dosage form of stavudine, therefore, would be designed to have the same bioavailability as the commercial 40 mg. immediate release capsules given twice daily. […] A problem in the formulation of a suitable extended dosage form of stavudine is its sensitivity to moisture that causes it to hydrolyze, primarily into thymine. This moisture sensitivity has not been a problem with the commercial non-sustained release dosage form of stavudine because it is a dry granulation that is filled into hard gelatin capsules. However, sustained release dosage forms conventionally require different compounding procedures typically including a granulation step involving an aqueous medium. […] In accordance with the present invention, a method has been found whereby stavudine can be successfully compounded into an extended release formulation utilizing conventional techniques without appreciable loss of potency due to hydrolysis.

absorption in the colon relative to that of the small intestine: approximately one half
absorption in the upper intestine: well absorbed
Compound: Cc1cn([C@H]2C=C[C@@H](CO)O2)c(=O)[nH]c1=O [stavudine, 3′-deoxy-2′,3′-didehydrothymidine]
